The source made the active and inactive calls. The calls are words filed in the database; no cut-off is given here.

Here are results for 14 molecules from ChEMBL document CHEMBL1141813, “Activities of plant-derived phenols in a fibroblast cell culture model” (J Nat Prod, 1999).

The nature of test [1]: (§1) Growth inhibition of BALB/c mouse cloned 3T3/A31 cells after 72 hrs by nigrosin assay. Format: functional, cell-based. To be noted: BALB/3T3, 72 h.
In test [2] the test system is BALB/3T3. The test is described as §1. Format: functional, cell-based.
Test [3] relates to BALB/3T3. The experiment in a line: Growth inhibition of BALB/c mouse cloned 3T3/A31 cells at 0.01 to 100 ug/mL after 72 hrs by nigrosin assay. Format: functional, cell-based.
For test [4], the system named is BALB/3T3. The experiment in a line: Growth inhibition of BALB/c mouse cloned 3T3/A31 cells at 10 to 100 ug/mL after 72 hrs by nigrosin assay. Format: functional, cell-based.
In test [5] the test system is BALB/3T3. Put plainly: Growth inhibition of BALB/c mouse cloned 3T3/A31 cells at 100 ug/mL after 72 hrs by nigrosin assay. Format: functional, cell-based.
Test [6] relates to BALB/3T3. Put plainly: Stimulation of BALB/c mouse cloned 3T3/A31 cells growth at 0.01 to 0.1 ug/mL. Format: functional.
Test [7] relates to BALB/3T3. Put plainly: Cytotoxicity against BALB/c mouse cloned 3T3/A31 cells at 1 to 100 ug/mL after 72 hrs by nigrosin assay. Format: functional, cell-based.
The test system of test [8] is BALB/3T3. Put plainly: Stimulation of BALB/c mouse cloned 3T3/A31 cells growth at 0.01 to 1 ug/mL. Format: functional.
For test [9], the system named is BALB/3T3. Put plainly: Stimulation of BALB/c mouse cloned 3T3/A31 cells proliferation at 0.01 to 10 ug/mL. Format: functional, cell-based.
A short description of test [10]: Stimulation of BALB/c mouse cloned 3T3/A31 cells proliferation at 0.01 ug/mL. Format: functional, BALB/3T3.

In test [1], `O=c1cc(-c2ccc(O)cc2)oc2cc(O)cc(O)c12` [APIGENIN] showed an IC50 of 141 µM. Besides, in test [2], the Activity entry is “Dose-dependent effect”. Moreover, the outcome in test [3] was Active.

The molecule `O=c1cc(-c2ccccc2)oc2cc(O)c(O)c(O)c12` [BAICALEIN] showed an IC50 in test [1] of 342 µM. Also, in test [2], the Activity entry was “Dose-dependent effect”. For the same molecule, the outcome in test [4] was Active.

Turning to `COc1ccc(-c2coc3cc(O)cc(O)c3c2=O)cc1` [BIOCHANIN], the IC50 in test [1] was 220 µM. In addition, the Activity result in test [2] is “Dose-dependent effect”. Further, the result in test [4] was Active.

`O=C(O)/C=C/c1ccc(O)c(O)c1` [CAFFEIC ACID]: it took 554 µM to reach half-maximal inhibition in [1] (IC50). The Activity result in [2] was “Dose-dependent effect”. Also, the outcome in test [4] was Active.

As for `Oc1cc(O)c2c(c1)OC(c1ccc(O)c(O)c1)C(O)C2` (configuration not stated) [CATECHIN], the IC50 in test [1] was above 344 µM. Moreover, in [2], the Activity result was “Dose-dependent effect”. The outcome in [4] was Active.

The molecule `O=C(/C=C/c1ccc(O)c(O)c1)O[C@@H]1C[C@](O)(C(=O)O)C[C@@H](O)[C@H]1O` [CHLOROGENIC ACID] yielded an IC50 in [1] above 280 µM. Moreover, the Activity entry in test [2] is “Dose-dependent effect”; in [6], 5.3%. In addition, in test [5], the outcome was Active.

As for `O=c1cc(-c2ccccc2)oc2cc(O)cc(O)c12` [CHRYSIN], the IC50 in test [1] came out at 248 µM. In addition, the Activity result in test [2] is “Dose-dependent effect”. Moreover, the result in test [7] was Active.

Molecule `O=C(O)/C=C/c1ccccc1` [CINNAMIC ACID] registered an IC50 in test [1] of 671 µM. Also, the Activity entry in test [2] is “Dose-dependent effect”. The result in [4] was Active.

In test [1], `O=c1cc(-c2ccccc2)oc2ccccc12` [FLAVONE] displayed an IC50 of 287 µM. Also, the Activity result in [2] was “Dose-dependent effect”. The result in [7] was Active.

In test [1], `O=c1c(-c2ccc(O)cc2)coc2cc(O)cc(O)c12` [GENISTEIN] yielded an IC50 of 184 µM. Further, the values for the Activity entry in [2] and in test [6] were “Dose-dependent effect” and 5.3%, respectively. Also, the result in [7] was Active.

Take `COc1ccc(/C=C/C(=O)O)cc1OC` [O,O'-DIMETHYLCAFFEIC ACID]: the IC50 in [1] was above 480 µM. Moreover, the Activity result in test [2] was “Dose-dependent effect”. Also, the result in [4] was Active.

In test [1], `O=c1c(O)c(-c2ccc(O)c(O)c2)oc2cc(O)cc(O)c12` [QUERCETIN] returned an IC50 of 217 µM. The results for the Activity result in [2] and in test [6] were “Dose-dependent effect” and 5.3%, respectively. Also, the result in test [4] was Active.

`C[C@@H]1O[C@@H](Oc2c(-c3ccc(O)c(O)c3)oc3cc(O)cc(O)c3c2=O)[C@H](O)[C@H](O)[C@H]1O` [QUERCITRIN] yielded a half-maximal inhibitory concentration (IC50) in [1] above 223 µM. The results for the Activity result in test [2] and in [8] were “Dose-dependent effect” and 4.9%, respectively. For the same molecule, the result in test [5] was Active.

In test [1], `C[C@@H]1O[C@@H](OC[C@H]2O[C@@H](Oc3c(-c4ccc(O)c(O)c4)oc4cc(O)cc(O)c4c3=O)[C@H](O)[C@@H](O)[C@@H]2O)[C@H](O)[C@H](O)[C@H]1O` [RUTIN] showed an IC50 above 164 µM. Further, the results for the Activity result in [2] and in test [10] were “Dose-dependent effect” and 30.4%, respectively. The result in test [9] was Active.
